Test results: patent US10961229B2, “Selective NR2B antagonists” (Bristol-Myers Squibb Company, priority 2015, dated 2021)
Like-named read-outs stand apart in the source and are kept apart here.

Experiments:
NR2B-subtype receptors = target: T1, NR2B-subtype receptors (Mus musculus, UniProt P35438+Q01097); assay: Ex vivo occupancy assay; type: in vivo; settings: for receptor occupancy at 3 mg/kg: mouse, iv
T1 construct: brain-resident NR2B-subtype receptors; from tissue; host or cells: forebrain membrane homogenates of dosed CD-1 mice
Procedure: Ex vivo occupancy assay. […] 7-9 weeks old male CD-1 mice were dosed intravenously in a vehicle consisting of 10% dimethylacetamide, 40% PEG-400, 30% hydroxypropyl betacyclodextrin, and 30% water with experimental compounds and the forebrains were harvested 15 minutes post-dosing by decapitation. The brain samples were immediately snap-frozen and stored at −80° C. On the following day, the dosed brain samples were thawed on ice for 15-20 minutes followed by homogenization using Polytron for 10 seconds in cold homogenization buffer composed of 50 mM KH2PO4 (pH adjusted to 7.4 with KOH), 1 mM EDTA, 0.005% Triton X 100 and protease inhibitor cocktail (Sigma Aldrich). The crude homogenates were further homogenized using a Dounce homogenizer and the homogenized membrane aliquots from all animals were flash-frozen and stored at −80° C. until further use. The whole homogenization process was performed on ice.
For determining occupancy, the membrane homogenates were first thawed on ice and then needle-homogenized using a 25 gauge needle. The homogenized membrane (6.4 mg/ml) was added to a 96-well plate followed by addition of ^3H Ro 25-6981 (6 nM). The reaction mixture was incubated for 5 minutes on a shaker at 4° C. and then harvested onto GF/B filter plates (treated with 0.5% PEI for 1 hr at room temperature). The filter plates were dried at 50° C. for 20 mins, incubated with microscint 20 for 10 minutes and read on TopCount (Perkin Elmer). Each dose or compound group consisted of 4-5 animals. The control group of animals was dosed with vehicle alone. Membrane from each animal was added in triplicates to the assay plate. Non-specific binding was determined using 10 μM Ro 25-6981 added to the wells containing membrane homogenates from vehicle-dosed animals. Specific counts/minute was converted to % occupancy at each dose of a compound for each animal using the following equation:
(§1) [formula] […] Drug levels were determined by mass spectroscopy in the usual manner. Drug levels in the blood plasma were 1018 nM in at this dose, and drug levels in the homogonized brain tissue were 1342 nM.

[1] = Drug levels in blood plasma and homogenized brain tissue by mass spectroscopy; type: in vivo, mouse; settings: intravenous; for concentration at 15 min: CD-1, mouse, 3 mg/Kg i.v. dose, ex vivo occupancy study, mice; for concentration at 21 min: 3 mg/Kg i.v., end of mouse forced swim test
Procedure: as §1
Mouse Forced swim test (mFST). Forced Swim Test (FST) is an animal model used to assess antidepressant compounds in preclinical studies. The FST was performed similar to the method of Porsolt et al. with modifications (Porsolt R D, Bertin A, Jalfre M. Behavioral despair in mice: a primary screening test for antidepressants. Arch Int Pharmacodyn Thér 1977; 229:327-36). In this paradigm, mice are forced to swim in an inescapable cylinder filled with water. Under these conditions, mice will initially try to escape and eventually develop immobility behavior; this behavior is interpreted as a passive stress-coping strategy or depression-like behavior. Swim tanks were positioned inside a box made of plastic. Each tank was separated from each other by opaque plastic sheets to the height of cylinders. Three mice were subjected to test at a time. Swim sessions were conducted for 6 min by placing mice in individual glass cylinders (46 cm height×20 cm diameter) containing water (20-cm deep, maintained at 24-25° C.). […] The mouse was judged to be immobile whenever it remained floating passively without struggling in the water and only making those movements necessary to keep its nose/head above the water and to keep it afloat. The duration of immobility was evaluated during the total 6 min of the test and expressed as duration (sec) of immobility. Each mouse was tested only once. At the end of each session, mice were dried with a dry cloth and returned to their home cage placed on a thermal blanket to prevent hypothermia. Water was replaced after each trial. All testing sessions were recorded with a video camera (Sony Handicam, Model: DCR-HC38E; PAL) and scoring was done using the Forced Swim Scan, Version 2.0 software (Clever Systems Inc., Reston, Va., USA; see Hayashi E, Shimamura M, Kuratani K, Kinoshita M, Hara H. Automated experimental system capturing three behavioral components during murine forced swim test. Life Sci. 2011 February 28; 88 (9-10): 411-7 and Yuan P, Tragon T, Xia M, Leclair C A, Skoumbourdis A P, Zheng W, Thomas C J, Huang R, Austin C P, Chen G, Guitart X. Phosphodiesterase 4 inhibitors enhance sexual pleasure-seeking activity in rodents. Pharmacol Biochem Behav. 2011; 98(3):349-55). For NCE testing: Test compound was administered in mice 15 min before swim session by i.v. route and immobility time was recorded for next 6 min. […] The NR2B receptor occupancy was determined as reported above and was determined to be 67%.

[2] = target: T2, NR2B-subtype NMDA receptors (Rattus norvegicus, UniProt P35439+Q00960); assay: Radioligand binding assay (3H Ro 25-6981 competition); settings: rat forebrain membranes, 3H Ro 25-6981 (4 nM)
T2 construct: from tissue; host or cells: rat forebrain membrane homogenate (Sprague Dawley, Harlan)
Procedure: Radioligand binding assay. Binding experiments to determine binding to NR2B-subtype NMDA receptors were performed on forebrains of 8-10 weeks old male Sprague Dawley rats (Harlan, Netherlands) using ^3H Ro 25-6981 (Mutel V; Buchy D; Klingelschmidt A; Messer J; Bleuel Z; Kemp J A; Richards J G. Journal of Neurochemistry, 1998, 70(5):2147-2155. Rats were decapitated without anesthesia using a Guillotine (approved by animal ethics committee) and the harvested brains were snap-frozen and stored at −80° C. for 3-6 months for membrane preparation.
For membrane preparation, rat forebrains were thawed on ice for 20 minutes in homogenization buffer composed of 50 mM KH2PO4 (pH adjusted to 7.4 with KOH), 1 mM EDTA, 0.005% Triton X 100 and protease inhibitor cocktail (Sigma Aldrich). Thawed brains were homogenized using a Dounce homogenizer and centrifuged at 48000×g for 20 min. The pellet was resuspended in cold buffer and homogenized again using a Dounce homogenizer. Subsequently, the homogenate was aliquoted, snap-frozen and stored at −80° C. for not more than 3-4 months.
To perform the competition binding assay, thawed membrane homogenate was added to each well of a 96-well plate (20 μg/well). […] The filter plates were dried at 50° C. for 20 mins, incubated with microscint 20 for 10 minutes and finally, the counts were read on TopCount (Perkin Elmer).

hERG channels = target: T3, hERG channels (Homo sapiens, UniProt Q12809); assay: hERG electrophysiology assay (patch clamp); type: cell-based; settings: HEK 293 cells stably expressing hERG channels, tail current
T3 construct: expressed in transfected cells
Procedure: hERG electrophysiology assay. The experimental compounds were assessed for hERG activity on HEK 293 cells stably expressing hERG channels using patch clamp technique. Coverslips plated with hERG expressing cells were placed in the experimental chamber and were perfused with a solution composed of (in mM): 140 NaCl, 4 KCl, 1.8 CaCl2, 1 MgCl2, 10 Glucose, 10 HEPES (pH 7.4, NaOH) at room temperature. Borosilicate patch pipettes had tip resistances of 2-4 Mohms when filled with an internal solution containing: 130 KCl, 1 MgCl2, 1 CaCl2, 10 EGTA, 10 HEPES, 5 ATP-K2 (pH 7.2, KOH). The cells were clamped at −80 mV in whole cell configuration using an Axopatch 200B (Axon instruments, Union City, Calif.) patch clamp amplifier controlled by pClamp (Axon instruments) software. […] First, tail currents were recorded in presence of extracellular solution alone (control) and subsequently, in extracellular solution containing increasing compound concentrations. […] The percentage inhibition at each concentration was calculated as reduction in peak tail current with respect to the peak tail current recorded in the presence of control solution. […]

mice = assay: Mouse Forced swim test (mFST); type: in vivo; settings: 3 mg/Kg i.v., 15 min before swim session, 6 min test
Procedure: Mouse Forced swim test (mFST). Forced Swim Test (FST) is an animal model used to assess antidepressant compounds in preclinical studies. The FST was performed similar to the method of Porsolt et al. with modifications (Porsolt R D, Bertin A, Jalfre M. Behavioral despair in mice: a primary screening test for antidepressants. Arch Int Pharmacodyn Thér 1977; 229:327-36). In this paradigm, mice are forced to swim in an inescapable cylinder filled with water. Under these conditions, mice will initially try to escape and eventually develop immobility behavior; this behavior is interpreted as a passive stress-coping strategy or depression-like behavior. […] The duration of immobility was evaluated during the total 6 min of the test and expressed as duration (sec) of immobility. […] All testing sessions were recorded with a video camera (Sony Handicam, Model: DCR-HC38E; PAL) and scoring was done using the Forced Swim Scan, Version 2.0 software (Clever Systems Inc., Reston, Va., USA; see Hayashi E, Shimamura M, Kuratani K, Kinoshita M, Hara H. Automated experimental system capturing three behavioral components during murine forced swim test. Life Sci. 2011 February 28; 88 (9-10): 411-7 and Yuan P, Tragon T, Xia M, Leclair C A, Skoumbourdis A P, Zheng W, Thomas C J, Huang R, Austin C P, Chen G, Guitart X. Phosphodiesterase 4 inhibitors enhance sexual pleasure-seeking activity in rodents. […]

T1 sequence (Q01097 27-1482, other chains not shown): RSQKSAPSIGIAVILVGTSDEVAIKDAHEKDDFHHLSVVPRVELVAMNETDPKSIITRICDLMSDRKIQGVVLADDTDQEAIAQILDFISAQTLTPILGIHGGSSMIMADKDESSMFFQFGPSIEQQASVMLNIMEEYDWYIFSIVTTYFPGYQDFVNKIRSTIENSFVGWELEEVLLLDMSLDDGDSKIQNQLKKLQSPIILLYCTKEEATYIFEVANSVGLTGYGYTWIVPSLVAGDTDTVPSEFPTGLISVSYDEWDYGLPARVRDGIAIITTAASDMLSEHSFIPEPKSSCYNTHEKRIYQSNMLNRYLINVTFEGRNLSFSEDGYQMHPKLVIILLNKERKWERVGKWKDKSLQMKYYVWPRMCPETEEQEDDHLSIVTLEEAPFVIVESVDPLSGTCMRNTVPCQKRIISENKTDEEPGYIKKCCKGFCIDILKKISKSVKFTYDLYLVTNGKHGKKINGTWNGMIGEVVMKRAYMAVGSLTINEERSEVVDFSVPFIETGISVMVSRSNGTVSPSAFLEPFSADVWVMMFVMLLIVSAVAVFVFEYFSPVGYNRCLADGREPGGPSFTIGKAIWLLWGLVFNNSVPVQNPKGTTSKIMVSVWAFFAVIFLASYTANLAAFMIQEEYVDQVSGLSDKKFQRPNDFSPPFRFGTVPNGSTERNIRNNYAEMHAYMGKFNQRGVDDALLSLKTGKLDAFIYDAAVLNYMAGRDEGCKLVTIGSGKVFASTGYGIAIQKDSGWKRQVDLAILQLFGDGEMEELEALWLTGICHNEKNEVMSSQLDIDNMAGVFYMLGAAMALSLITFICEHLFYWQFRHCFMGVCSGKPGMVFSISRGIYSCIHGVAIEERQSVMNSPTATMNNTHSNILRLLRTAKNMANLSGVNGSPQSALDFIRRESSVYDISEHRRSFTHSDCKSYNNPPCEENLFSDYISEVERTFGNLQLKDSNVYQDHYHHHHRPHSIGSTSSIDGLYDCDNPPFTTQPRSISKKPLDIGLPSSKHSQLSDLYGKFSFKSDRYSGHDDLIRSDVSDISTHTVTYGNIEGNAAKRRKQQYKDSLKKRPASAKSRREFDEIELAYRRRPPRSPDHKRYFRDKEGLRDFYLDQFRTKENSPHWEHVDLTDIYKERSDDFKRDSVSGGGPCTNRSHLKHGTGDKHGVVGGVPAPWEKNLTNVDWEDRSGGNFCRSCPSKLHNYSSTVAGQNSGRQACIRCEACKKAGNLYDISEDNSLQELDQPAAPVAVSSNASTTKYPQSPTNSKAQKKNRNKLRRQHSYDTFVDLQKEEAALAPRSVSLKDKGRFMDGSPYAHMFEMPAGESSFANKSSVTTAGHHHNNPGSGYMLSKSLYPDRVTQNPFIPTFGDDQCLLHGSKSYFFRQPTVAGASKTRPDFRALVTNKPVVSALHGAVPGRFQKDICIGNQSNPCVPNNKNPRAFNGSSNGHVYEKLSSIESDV
T3 sequence (Q12809 whole entry): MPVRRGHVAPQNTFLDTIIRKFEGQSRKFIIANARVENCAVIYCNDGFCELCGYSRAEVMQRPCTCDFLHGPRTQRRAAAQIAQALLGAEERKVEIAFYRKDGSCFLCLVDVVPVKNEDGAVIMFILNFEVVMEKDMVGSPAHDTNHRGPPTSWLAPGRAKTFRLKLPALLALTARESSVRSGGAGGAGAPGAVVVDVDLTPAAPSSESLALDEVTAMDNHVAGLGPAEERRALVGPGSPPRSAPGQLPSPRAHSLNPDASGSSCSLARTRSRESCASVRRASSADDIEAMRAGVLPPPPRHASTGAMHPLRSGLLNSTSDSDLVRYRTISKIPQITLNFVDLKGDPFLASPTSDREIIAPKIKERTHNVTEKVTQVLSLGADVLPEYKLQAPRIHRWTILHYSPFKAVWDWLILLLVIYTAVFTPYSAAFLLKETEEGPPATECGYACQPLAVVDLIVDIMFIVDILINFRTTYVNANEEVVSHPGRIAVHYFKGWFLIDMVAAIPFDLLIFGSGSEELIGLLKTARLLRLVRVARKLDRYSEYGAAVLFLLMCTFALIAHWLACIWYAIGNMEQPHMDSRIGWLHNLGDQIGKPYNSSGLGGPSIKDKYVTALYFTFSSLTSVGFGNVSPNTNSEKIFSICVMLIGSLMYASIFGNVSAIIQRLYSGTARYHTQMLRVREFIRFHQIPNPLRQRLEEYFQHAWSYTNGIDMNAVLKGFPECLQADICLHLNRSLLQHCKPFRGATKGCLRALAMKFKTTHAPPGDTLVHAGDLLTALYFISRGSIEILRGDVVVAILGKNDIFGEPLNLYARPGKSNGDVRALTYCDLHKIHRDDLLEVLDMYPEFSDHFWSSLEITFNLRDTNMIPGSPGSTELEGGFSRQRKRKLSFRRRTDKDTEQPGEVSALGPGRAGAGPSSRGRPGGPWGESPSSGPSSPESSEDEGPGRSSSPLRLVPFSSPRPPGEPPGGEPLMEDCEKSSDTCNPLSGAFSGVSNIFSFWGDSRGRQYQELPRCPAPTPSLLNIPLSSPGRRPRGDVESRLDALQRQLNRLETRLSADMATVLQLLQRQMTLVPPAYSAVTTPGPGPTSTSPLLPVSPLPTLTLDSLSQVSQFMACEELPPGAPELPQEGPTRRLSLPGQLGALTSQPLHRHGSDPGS
T2 sequence (Q00960 27-1482, other chains not shown): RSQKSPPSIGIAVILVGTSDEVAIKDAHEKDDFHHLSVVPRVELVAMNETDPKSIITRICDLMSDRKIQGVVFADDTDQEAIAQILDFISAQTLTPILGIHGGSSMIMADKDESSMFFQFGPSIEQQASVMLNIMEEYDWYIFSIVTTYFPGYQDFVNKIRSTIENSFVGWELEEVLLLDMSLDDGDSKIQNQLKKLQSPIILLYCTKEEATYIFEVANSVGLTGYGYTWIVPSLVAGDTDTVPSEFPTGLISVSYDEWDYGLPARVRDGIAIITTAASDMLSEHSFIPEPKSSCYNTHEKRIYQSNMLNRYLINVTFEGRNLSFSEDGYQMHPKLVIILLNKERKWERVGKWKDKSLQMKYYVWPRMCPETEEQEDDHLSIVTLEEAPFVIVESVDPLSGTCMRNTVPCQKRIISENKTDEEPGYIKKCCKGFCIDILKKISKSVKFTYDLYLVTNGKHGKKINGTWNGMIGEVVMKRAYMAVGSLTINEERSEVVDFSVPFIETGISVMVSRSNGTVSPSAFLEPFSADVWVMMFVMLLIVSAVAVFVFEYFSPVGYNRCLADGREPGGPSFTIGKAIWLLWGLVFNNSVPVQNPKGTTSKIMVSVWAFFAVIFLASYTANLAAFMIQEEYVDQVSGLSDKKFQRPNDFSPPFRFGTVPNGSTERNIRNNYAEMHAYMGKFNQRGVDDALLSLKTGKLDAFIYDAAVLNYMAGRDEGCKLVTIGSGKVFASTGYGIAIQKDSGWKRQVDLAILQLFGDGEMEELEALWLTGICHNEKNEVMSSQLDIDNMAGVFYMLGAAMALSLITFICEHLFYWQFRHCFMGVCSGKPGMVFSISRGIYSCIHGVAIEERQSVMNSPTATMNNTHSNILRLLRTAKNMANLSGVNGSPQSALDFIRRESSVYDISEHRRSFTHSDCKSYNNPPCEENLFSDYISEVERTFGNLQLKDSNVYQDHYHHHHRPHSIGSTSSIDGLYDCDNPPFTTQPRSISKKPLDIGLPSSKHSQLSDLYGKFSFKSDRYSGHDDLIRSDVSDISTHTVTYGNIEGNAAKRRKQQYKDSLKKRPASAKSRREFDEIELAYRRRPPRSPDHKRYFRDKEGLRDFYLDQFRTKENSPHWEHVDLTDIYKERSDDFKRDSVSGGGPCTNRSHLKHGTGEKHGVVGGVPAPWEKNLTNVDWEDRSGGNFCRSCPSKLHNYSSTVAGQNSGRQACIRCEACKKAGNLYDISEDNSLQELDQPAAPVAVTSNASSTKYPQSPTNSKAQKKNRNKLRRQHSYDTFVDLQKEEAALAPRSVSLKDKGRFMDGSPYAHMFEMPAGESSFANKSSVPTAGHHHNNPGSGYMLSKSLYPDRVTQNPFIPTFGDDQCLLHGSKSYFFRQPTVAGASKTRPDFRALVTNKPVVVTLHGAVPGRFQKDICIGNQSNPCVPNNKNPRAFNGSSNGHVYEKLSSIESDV

| concentration at 15 min ([1]; brain homogenate, read-out: drug levels in the homogonized brain tissue) | concentration at 15 min ([1]; plasma, read-out: Drug levels in the blood plasma) | concentration at 21 min ([1]; brain, read-out: Drug levels in the brain) | concentration at 21 min ([1]; plasma, read-out: Drug levels in the plasma) | receptor occupancy at 3 mg/kg (NR2B-subtype receptors; 3 mg/Kg i.v. dose, CD-1 mice, forebrains harvested 15 minutes post-dosing) | receptor occupancy at 3 mg/kg (NR2B-subtype receptors; 3 mg/Kg i.v., mice of the forced swim test) | Ki [2] | Structure (SMILES) | occupancy of brain-resident NR2B-subtype receptors (in words) (NR2B-subtype receptors; animals after dosing) | IC50 (hERG channels) | immobility time (mice) |
| --- | --- | --- | --- | --- | --- | --- | --- | --- | --- | --- |
| – | – | – | – | – | – | – | O=C1C(N2CCN(c3ncc(O)cn3)CC2)CCN1c1ccc(Cl)c(F)c1 (racemic) [Example 1, 1-(4-chloro-3-fluorophenyl)-3-(4-(5-hydroxypyrimidin-2-yl)piperazin-1-yl)pyrrolidin-2-one] | occupies brain-resident NR2B-subtype receptors | – | – |
| 1340 nM | 1020 nM | 410 nM | 314 nM | 86% | 67% | 0.004 µM | Cc1ccc(N2CCC(N3CCN(c4ccc(O)cn4)CC3)C2=O)cc1F (single isomer, unassigned) [Example 14 P1, 1-(3-fluoro-4-methylphenyl)-3-(4-(5-hydroxypyridin-2-yl)piperazin-1-yl)pyrrolidin-2-one] | – | 8.9 µM | statistically significant decrease |
